Molecules are shown by their SMILES.

The assay concerns the target T1, Gag-Pol polyprotein [588-1027]/[588-1147] (Human immunodeficiency virus 1, UniProt P04585).
T1 construct: 588-1027; 588-1147
The assay can be described thus: HIV-1 RT Assay. To be noted: pH 7.9.
Turning to `COC(=O)c1cc(C(=CC(=O)O)c2cc(Cl)c(OC)c(C(=O)OC)c2)cc(Cl)c1OC` [3,3-Dichloro-4,4-dimethoxy-5,5-bis(methoxycarbonyl)-3,3-diphenylpropenoic Acid], the IC50 was > 100 µM. The result for `CC1(C)OC(=O)c2cc(C(=CCCBr)c3cc(Cl)c4c(c3)C(=O)OC(C)(C)O4)cc(Cl)c2O1` [6-[4-bromo-1-(8-chloro-2,2-dimethyl-4-oxo-2,4-dihydro-1,3-benzodioxin-6-yl)but-1-en-1-yl]-8-chloro-2,2-dimethyl-2,4-dihydro-1,3-benzodioxin-4-one] reads > 100 µM; that for `CC1(C)OC(=O)c2cc(C(=CCCO)c3cc(Cl)c4c(c3)C(=O)OC(C)(C)O4)cc(Cl)c2O1` [8-chloro-6-[1-(8-chloro-2,2-dimethyl-4-oxo-2,4-dihydro-1,3-benzodioxin-6-yl)-4-hydroxybut-1-en-1-yl]-2,2-dimethyl-2,4-dihydro-1,3-benzodioxin-4-one], > 100 µM. The value for `COC=C(c1cc(Br)c(OC)c(C(=O)OC)c1)c1cc(Br)c(OC)c(C(=O)OC)c1` [Alkenyldiarylmethane (ADAM) 5] was > 100 µM. With `COC(=O)c1cc(C(=CCCCC(=O)O)c2cc(Cl)c(OC)c(C(=O)OC)c2)cc(Cl)c1OC` [Alkenyldiarylmethane (ADAM) 25], the IC50 was > 100 µM. The value for `COc1c(Cl)cc(C(=CCCCC(=O)O)c2cc(Cl)c(OC)c(C(=O)O)c2)cc1C(=O)O` [Alkenyldiarylmethane (ADAM) 26] was > 100 µM; that for `COc1c(Cl)cc(C(=CCC(=O)O)c2cc(Cl)c(OC)c(C(=O)O)c2)cc1C(=O)O` [Alkenyldiarylmethane (ADAM) 27] was > 100 µM; that for `C=C(c1cc(Br)c(OC)c(C(=O)OC)c1)c1cc(Br)c(OC)c(C(=O)OC)c1` [methyl 3-bromo-5-{1-[3-bromo-4-methoxy-5-(methoxycarbonyl)phenyl]ethenyl}-2-methoxybenzoate] was > 100 µM. As for `COC(=O)c1cc(C(=CCCO)c2cc(Cl)c(OC)c(C(=O)OC)c2)cc(Cl)c1OC` [methyl 3-chloro-5-{1-[3-chloro-4-methoxy-5-(methoxycarbonyl)phenyl]-4-hydroxybut-1-en-1-yl}-2-methoxybenzoate], the IC50 is > 100 µM.

Turning to `COC(=O)c1cc(C(=CC(=O)OC(C)(C)C)c2cc(Cl)c(OC)c(C(=O)OC)c2)cc(Cl)c1OC` [methyl 5-[3-(tert-butoxy)-1-[3-chloro-4-methoxy-5-(methoxycarbonyl)phenyl]-3-oxoprop-1-en-1-yl]-3-chloro-2-methoxybenzoate], the IC50 is > 100 µM.

(Values after BindingDB's records for doi:10.1021/jm9800595 (Purdue University, 1998).)
